Results taken from BindingDB's records for doi:10.1016/j.bmcl.2011.10.035 (Sepuluh Nopember Institute of Technology, 2011).

Biological target: Aldo-keto reductase family 1 member B1 (Homo sapiens, UniProt P15121)
Assay: Inhibition of recombinant human aldose reductase using dl-glyceraldehyde as substrate after 10 mins by spectrophotometry

| IC50 | SMILES |
| --- | --- |
| > 193 µM | CC(CC(=O)C[C@@H](C)[C@H]1CC(=O)[C@@]2(C)C3C(=O)C[C@H]4C(C)(C)[C@@H](O)CC[C@]4(C)C3C(=O)C(=O)[C@]12C)C(=O)O (stereo partly drawn) |
| > 188 µM | CC(CC(=O)C[C@@H](C)[C@H]1CC(=O)[C@@]2(C)C3C(C(=O)C(=O)[C@]12C)[C@@]1(C)CC[C@H](O)C(C)(C)[C@@H]1C[C@@H]3O)C(=O)O (stereo partly drawn) |

| SMILES | IC50 |
| --- | --- |
| CC(=CC(=O)CC(C)C(=O)O)[C@H]1CC(=O)[C@@]2(C)C3=C(C(=O)C[C@]12C)[C@@]1(C)CCC(=O)C(C)(C)[C@@H]1C[C@@H]3O (stereo partly drawn) | > 195 µM |
